Test results taken from paper PMC10861534, “Poly-γ-glutamylation of biomolecules” (Nature Communications, 2024).

Experiments:
Mtb-FbiB = Mtb-FbiB (Mycobacterium tuberculosis, UniProt P9WP79)
Mtb-FPGS = target: T1, Mtb-FPGS (Mycobacterium tuberculosis, UniProt I6Y0R5)
T1 construct: gene folC

Af-CofE = target: T2, Af-CofE (Archaeoglobus fulgidus, UniProt O28028); assay: LC-MS of reaction products; type: biochemical; conditions: 2 mM analogue, 50 uM F420-1, 2 mM GTP, 2 mM MgCl2/MnCl2, pH 8.5, 37 °C; chain terminator
T2 construct: codon-optimized ORF in pProEX-HTb, E. coli BL21(DE3) LOBSTR; N-terminal His6-tag removed by rTEV; co-purified flavins washed off with urea/KBr; homodimer
T2 sequence (O28028 whole entry): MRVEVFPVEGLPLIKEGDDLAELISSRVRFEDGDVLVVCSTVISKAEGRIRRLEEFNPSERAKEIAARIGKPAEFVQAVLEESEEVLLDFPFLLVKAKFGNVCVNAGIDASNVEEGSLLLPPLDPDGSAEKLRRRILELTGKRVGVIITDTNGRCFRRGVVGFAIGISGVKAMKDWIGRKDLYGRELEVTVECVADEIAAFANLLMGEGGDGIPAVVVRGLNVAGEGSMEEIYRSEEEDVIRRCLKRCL

hFPGS = target: T3, hFPGS (Homo sapiens, UniProt Q05932); assay: LC-MS of reaction products; type: biochemical; conditions: 5 mM analogue, 0.5 mM folate, 5 mM ATP, 10 mM MgCl2, pH 8.5, 37 °C; chain terminator
T3 construct: gene FPGS; ORF in pFastBacHTa, N-terminal His6-tag, Sf9 insect cells
T3 sequence (Q05932 43-587): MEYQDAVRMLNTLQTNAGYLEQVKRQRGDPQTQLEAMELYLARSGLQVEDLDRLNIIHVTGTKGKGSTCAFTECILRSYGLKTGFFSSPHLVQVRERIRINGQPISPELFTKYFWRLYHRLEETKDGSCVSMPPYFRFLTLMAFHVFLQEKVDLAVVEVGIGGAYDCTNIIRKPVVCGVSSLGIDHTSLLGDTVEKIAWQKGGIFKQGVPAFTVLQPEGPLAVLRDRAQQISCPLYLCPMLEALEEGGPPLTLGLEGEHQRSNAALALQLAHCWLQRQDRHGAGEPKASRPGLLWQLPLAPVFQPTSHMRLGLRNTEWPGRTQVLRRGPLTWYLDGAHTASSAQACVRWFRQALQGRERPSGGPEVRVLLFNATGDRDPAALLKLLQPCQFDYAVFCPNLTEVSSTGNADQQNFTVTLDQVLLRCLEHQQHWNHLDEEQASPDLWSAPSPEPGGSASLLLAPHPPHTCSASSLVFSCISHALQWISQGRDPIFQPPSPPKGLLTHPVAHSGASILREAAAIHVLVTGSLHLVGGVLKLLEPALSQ

Tm-DHFR = target: T4, Tm-DHFR (Thermotoga maritima, UniProt Q60034); assay: 1H NMR of reaction; type: biochemical; conditions: 1 mM folate-2, 2 mM NADPH, pH 7.0, 37 °C; reduced to tetrahydrofolate-2
T4 construct: gene folA; synthesized ORF in pProEX-HTb, E. coli BL21(DE3) LOBSTR; TALON and SEC
T4 sequence (Q60034 1-169): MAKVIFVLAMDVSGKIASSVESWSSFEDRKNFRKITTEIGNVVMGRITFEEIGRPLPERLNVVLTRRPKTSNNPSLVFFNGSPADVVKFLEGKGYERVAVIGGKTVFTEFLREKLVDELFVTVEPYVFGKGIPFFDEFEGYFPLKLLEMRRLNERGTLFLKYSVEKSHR

T1 sequence (I6Y0R5 whole entry): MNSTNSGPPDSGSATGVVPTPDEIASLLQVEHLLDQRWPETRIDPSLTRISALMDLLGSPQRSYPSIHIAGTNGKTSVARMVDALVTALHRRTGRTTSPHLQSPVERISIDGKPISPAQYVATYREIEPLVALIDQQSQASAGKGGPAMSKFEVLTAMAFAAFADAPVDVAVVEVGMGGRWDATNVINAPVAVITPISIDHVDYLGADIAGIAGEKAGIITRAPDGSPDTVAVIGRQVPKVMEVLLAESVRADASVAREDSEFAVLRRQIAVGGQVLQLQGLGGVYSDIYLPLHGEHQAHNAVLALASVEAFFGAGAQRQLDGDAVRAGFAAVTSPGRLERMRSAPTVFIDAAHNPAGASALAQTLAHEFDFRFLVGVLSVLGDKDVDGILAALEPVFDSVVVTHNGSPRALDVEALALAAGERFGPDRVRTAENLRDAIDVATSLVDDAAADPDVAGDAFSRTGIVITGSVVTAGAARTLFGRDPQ
Chain of Mtb-FbiB (P9WP79 whole entry): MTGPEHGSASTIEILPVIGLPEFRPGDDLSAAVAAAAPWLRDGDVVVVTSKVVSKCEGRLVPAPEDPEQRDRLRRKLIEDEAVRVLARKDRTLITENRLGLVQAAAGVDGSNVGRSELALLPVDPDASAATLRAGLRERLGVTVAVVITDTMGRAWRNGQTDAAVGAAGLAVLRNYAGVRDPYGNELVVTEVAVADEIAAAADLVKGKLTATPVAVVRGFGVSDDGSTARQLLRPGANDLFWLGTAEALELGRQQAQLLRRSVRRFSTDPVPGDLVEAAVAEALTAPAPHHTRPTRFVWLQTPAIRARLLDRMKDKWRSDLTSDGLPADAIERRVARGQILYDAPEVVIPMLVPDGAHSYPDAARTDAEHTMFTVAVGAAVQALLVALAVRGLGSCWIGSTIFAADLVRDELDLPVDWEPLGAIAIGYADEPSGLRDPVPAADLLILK

Structure (SMILES) | LC-MS of reaction products (Mtb-FbiB) | LC-MS of reaction products (Mtb-FPGS) | LC-MS of reaction products (Af-CofE) | LC-MS of reaction products (hFPGS) | 1H NMR of reaction (Tm-DHFR)
N[C@@H](CC[N+](=O)[O-])C(=O)O [4-nitro-L-2-aminobutyric acid, (2S)-2-Amino-4-nitrobutanoic acid] | acts as a substrate across all enzymes and both cofactors | acts as a substrate across all enzymes and both cofactors | acts as a substrate across all enzymes and both cofactors | acts as a substrate across all enzymes and both cofactors | 
Nc1nc2ncc(CNc3ccc(C(=O)N[C@@H](CCC(=O)N[C@@H](CCC(=O)O)C(=O)O)C(=O)O)cc3)nc2c(=O)[nH]1 [folate-2, pteroyldi-γ-L-glutamic acid] |  | addition of only a single L-glutamate molecule to afford folate-3 as the major product |  |  | pre-incubation with Tm-DHFR initiated the production of tetrahydrofolate-2
